Assay results reported in the NIST ThermoML archive (doi:10.1016/j.fluid.2006.09.007).
± gives the expanded uncertainty stated by the source.

Conditions: Liquid, Ebulliometric method (Recirculating still)

Structure (SMILES)	vapor or sublimation pressure (314 K) [kPa]	vapor or sublimation pressure (317 K) [kPa]	vapor or sublimation pressure (320 K) [kPa]	vapor or sublimation pressure (323 K) [kPa]	vapor or sublimation pressure (326 K) [kPa]	vapor or sublimation pressure (329 K) [kPa]	vapor or sublimation pressure (332 K) [kPa]	vapor or sublimation pressure (335 K) [kPa]	vapor or sublimation pressure (338 K) [kPa]	vapor or sublimation pressure (315 K) [kPa]	vapor or sublimation pressure (318 K) [kPa]	vapor or sublimation pressure (321 K) [kPa]	vapor or sublimation pressure (324 K) [kPa]	vapor or sublimation pressure (327 K) [kPa]	vapor or sublimation pressure (330 K) [kPa]	vapor or sublimation pressure (333 K) [kPa]	vapor or sublimation pressure (336 K) [kPa]	vapor or sublimation pressure (339 K) [kPa]	vapor or sublimation pressure (342 K) [kPa]	vapor or sublimation pressure (345 K) [kPa]
CC(C)=O [acetone]	57.96 ± 0.47	64.95 ± 0.49	72.6 ± 0.54	80.96 ± 0.58	90.08 ± 0.64	100 ± 0.69	110.78 ± 0.75	122.47 ± 0.81	135.11 ± 0.85											
CO [methanol]										38.33 ± 0.38	43.97 ± 0.4	50.29 ± 0.45	57.36 ± 0.5	65.25 ± 0.56	74.02 ± 0.62	83.76 ± 0.68	94.55 ± 0.76	106.47 ± 0.84	119.61 ± 0.92	134.07 ± 0.96
